Assay results taken from ChEMBL document CHEMBL1201862, “PubChem BioAssay data set” (2004).
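Assay format: 96-well plates, 48-hour exposure. GI50 = concentration required for 50% inhibition of growth.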 Active and inactive are the calls of the source. Cut-off read from the data, not from the text of the source: active = GI50 up to about 1.1 µM and inactive = higher.

How the values were obtained:
Assay in all cases: NCI anticancer screen, dose series, 48 h
DMS-273 = test system: DMS-273
HCT-116 = test system: HCT-116
HCT-15 = test system: HCT-15
HOP-62 = test system: HOP-62
HT-29 = test system: HT-29
KM12 = test system: KM12
NCI-H460 = test system: NCI-H460
NCI-H522 = test system: NCI-H522
OVCAR-3 = test system: OVCAR-3
RPMI-8226 = test system: RPMI-8226
SF-539 = test system: SF-539
SK-MEL-2 = test system: SK-MEL-2
TK-10 = test system: TK-10
UACC-62 = test system: UACC-62
HOP-92 = test system: HOP-92
CAKI-1 = test system: CAKI-1
MCF7 = test system: MCF7

Row | SMILES | GI50 (DMS-273) | GI50 (HCT-116) | GI50 (HCT-15) | GI50 (HOP-62) | GI50 (HT-29) | GI50 (KM12) | GI50 (NCI-H460) | GI50 (NCI-H522) | GI50 (OVCAR-3) | GI50 (RPMI-8226) | GI50 (SF-539) | GI50 (SK-MEL-2) | GI50 (TK-10) | GI50 (UACC-62) | GI50 (HOP-92) | GI50 (CAKI-1) | GI50 (MCF7)
1 | CC(C)(C)C1CCC(O)(c2ccccc2)CC1 (configuration not stated) | > 100 µM (inactive) | 96.2 µM (inactive) | 94.2 µM | > 100 µM (inactive) | 74.3 µM (inactive) | > 100 µM (inactive) | > 100 µM (inactive) | 40.6 µM (inactive) | 70.1 µM (inactive) | 47.8 µM (inactive) | > 100 µM (inactive) | > 100 µM (inactive) | > 100 µM (inactive) | > 100 µM (inactive) | – | – | –
2 | Cc1ccc2c(c1)-c1c3c(nn1-c1ccccc1)-c1ccccc1SC3O2 (configuration not stated) | > 100 µM (inactive) | > 100 µM (inactive) | – | > 100 µM (inactive) | > 100 µM (inactive) | > 100 µM (inactive) | > 100 µM (inactive) | > 100 µM (inactive) | > 100 µM (inactive) | 63.8 µM (inactive) | > 100 µM (inactive) | > 100 µM (inactive) | > 100 µM (inactive) | – | > 100 µM (inactive) | – | –
3 | N=S(c1ccccc1)c1ccccc1[N+](=O)[O-] (configuration not stated) | 18.4 µM (inactive) | 17.8 µM (inactive) | 16.6 µM | 25.6 µM (inactive) | 21.5 µM (inactive) | 18.1 µM (inactive) | 28.1 µM (inactive) | 4.71 µM (inactive) | 10.6 µM (inactive) | 18.2 µM (inactive) | 18.5 µM (inactive) | 29.3 µM (inactive) | 20.4 µM (inactive) | 16.8 µM (inactive) | – | 13.7 µM (inactive) | –
4 | Cc1ccc(S(=O)(=O)NCCCN(CCCNS(=O)(=O)c2ccc(C)cc2)S(=O)(=O)c2ccc(C)cc2)cc1 | > 100 µM (inactive) | > 100 µM (inactive) | > 100 µM | > 100 µM (inactive) | – | 89.1 µM (inactive) | > 100 µM (inactive) | > 100 µM (inactive) | > 100 µM (inactive) | > 100 µM (inactive) | > 100 µM (inactive) | – | > 100 µM (inactive) | > 100 µM (inactive) | – | – | –
5 | COc1ccc(S(=O)(=O)N[C@H](C(=O)O)c2ccccc2)cc1 | > 100 µM (inactive) | > 100 µM (inactive) | > 100 µM | > 100 µM (inactive) | > 100 µM (inactive) | > 100 µM (inactive) | > 100 µM (inactive) | > 10 µM (inactive) | > 100 µM (inactive) | > 100 µM (inactive) | > 100 µM (inactive) | > 100 µM (inactive) | > 100 µM (inactive) | > 100 µM (inactive) | – | > 100 µM (inactive) | –
6 | N#CC1(Cc2ccc(N)cc2)c2ccccc2C=CN1C(=O)c1ccccc1 (configuration not stated) | 47.1 µM (inactive) | 54 µM (inactive) | – | > 100 µM (inactive) | 36.1 µM (inactive) | 47.5 µM (inactive) | – | 60.1 µM (inactive) | 43.9 µM (inactive) | 35.2 µM (inactive) | 60.5 µM (inactive) | 9.29 µM (inactive) | 44.4 µM (inactive) | 30.8 µM (inactive) | 33.6 µM (inactive) | – | –
7 | ClCCN(CC#CCCCC#CCN(CCCl)CCCl)CCCl | 4 µM (inactive) | 10.4 µM (inactive) | 12.4 µM | 11.3 µM (inactive) | 11.4 µM (inactive) | 19.2 µM (inactive) | 2.73 µM (inactive) | 8.3 µM (inactive) | 11.6 µM (inactive) | 2.79 µM (inactive) | 8.36 µM (inactive) | 13 µM (inactive) | 22.8 µM (inactive) | 4.98 µM (inactive) | 18.4 µM (inactive) | 7.67 µM (inactive) | 8.75 µM (inactive)
8 | COC(=O)C(=O)CC(=O)CCn1[nH]c(=O)c(Cl)c(Cl)c1=O | > 100 µM (inactive) | > 100 µM (inactive) | > 100 µM | > 100 µM (inactive) | > 100 µM (inactive) | > 100 µM (inactive) | > 100 µM (inactive) | > 100 µM (inactive) | > 100 µM (inactive) | – | > 100 µM (inactive) | > 100 µM (inactive) | > 100 µM (inactive) | > 100 µM (inactive) | > 100 µM (inactive) | > 100 µM (inactive) | –
9 | Cc1nc(N)c(-c2ccccc2)s1 | 39.9 µM (inactive) | 31.7 µM (inactive) | 33.8 µM | > 100 µM (inactive) | > 58.3 µM (inactive) | > 74.6 µM (inactive) | 51.1 µM (inactive) | 42.7 µM (inactive) | > 92 µM (inactive) | > 49.1 µM (inactive) | 70.8 µM (inactive) | 32.3 µM (inactive) | > 100 µM (inactive) | > 72.1 µM (inactive) | > 100 µM (inactive) | > 92.7 µM (inactive) | –
10 | COc1ccc(NC(=O)C/C(C)=N\N=C(N)N)c([N+](=O)[O-])c1 | > 100 µM (inactive) | > 100 µM (inactive) | > 100 µM | > 100 µM (inactive) | > 100 µM (inactive) | > 100 µM (inactive) | > 100 µM (inactive) | > 100 µM (inactive) | > 100 µM (inactive) | > 100 µM (inactive) | > 100 µM (inactive) | > 100 µM (inactive) | > 100 µM (inactive) | > 100 µM (inactive) | > 100 µM (inactive) | > 100 µM (inactive) | –
11 | CCCCCCN(CCCCCC)C(=O)Cc1c2n(c3ccccc13)Cc1ccccc1-2 | 36.9 µM (inactive) | 29.6 µM (inactive) | 37.4 µM | 86.7 µM (inactive) | 62.8 µM (inactive) | 42.1 µM (inactive) | 63.1 µM (inactive) | 32.5 µM (inactive) | 43.4 µM (inactive) | 28.8 µM (inactive) | > 100 µM (inactive) | 49.3 µM (inactive) | 51.8 µM (inactive) | > 100 µM (inactive) | 10.6 µM (inactive) | > 100 µM (inactive) | –
12 | Cc1cc(C)nc(NS(=O)(=O)c2ccc(Nc3c4ccccc4nc4c(C(=O)N5CCN(CCO)CC5)ccc(Cl)c34)cc2)n1 | > 100 µM (inactive) | 50.9 µM (inactive) | 52.2 µM | > 100 µM (inactive) | 70 µM (inactive) | > 100 µM (inactive) | > 100 µM (inactive) | – | > 100 µM (inactive) | 91.4 µM (inactive) | > 100 µM (inactive) | > 100 µM (inactive) | > 100 µM (inactive) | 83 µM (inactive) | > 100 µM (inactive) | > 100 µM (inactive) | –
13 | CCCN(CCC)C(=O)C(=O)c1c(N)[nH]n(-c2ccccc2)c1=O | > 100 µM (inactive) | > 100 µM (inactive) | > 100 µM | – | > 100 µM (inactive) | 96.4 µM (inactive) | > 100 µM (inactive) | > 100 µM (inactive) | > 100 µM (inactive) | > 100 µM (inactive) | > 100 µM (inactive) | > 100 µM (inactive) | > 100 µM (inactive) | > 100 µM (inactive) | > 100 µM (inactive) | > 100 µM (inactive) | –
